{"source": "patent US12337010B2", "about": "“Compositions and methods of treatment using nicotinamide mononucleotide” (Washington University, priority 2017, dated 2025)", "target": "T1, Slc12a8 (Mus musculus, UniProt Q8VI23)", "T1 construct": "NIH3T3 cells were transfected with 5 μg of pCXN2 carrying the full-length Slc12a8 cDNA (Slc12a8-OE); expressed in transfected cells", "T1 sequence (Q8VI23 1-705)": "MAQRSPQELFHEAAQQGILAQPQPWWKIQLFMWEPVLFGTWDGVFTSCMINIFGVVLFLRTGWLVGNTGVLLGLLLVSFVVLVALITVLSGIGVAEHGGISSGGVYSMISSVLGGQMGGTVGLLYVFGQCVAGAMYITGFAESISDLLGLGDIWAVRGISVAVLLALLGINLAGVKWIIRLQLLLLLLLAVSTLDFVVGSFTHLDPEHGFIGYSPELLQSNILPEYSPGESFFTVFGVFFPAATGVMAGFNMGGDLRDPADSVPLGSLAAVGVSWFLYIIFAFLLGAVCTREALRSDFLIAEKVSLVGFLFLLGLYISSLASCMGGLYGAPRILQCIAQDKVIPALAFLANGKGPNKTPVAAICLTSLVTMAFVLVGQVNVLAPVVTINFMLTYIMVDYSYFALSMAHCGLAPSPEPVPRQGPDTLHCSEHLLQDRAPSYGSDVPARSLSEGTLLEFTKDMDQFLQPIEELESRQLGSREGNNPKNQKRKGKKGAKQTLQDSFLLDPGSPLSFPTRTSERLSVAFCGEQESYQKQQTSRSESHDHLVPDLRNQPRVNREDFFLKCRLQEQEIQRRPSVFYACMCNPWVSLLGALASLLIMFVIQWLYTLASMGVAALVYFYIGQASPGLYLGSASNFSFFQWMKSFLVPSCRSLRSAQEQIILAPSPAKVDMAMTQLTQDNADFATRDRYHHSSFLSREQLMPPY", "experiment": "3H-NMN uptake and displacement in Slc12a8-OE proteoliposomes", "assay_type": "biochemical", "description": "Proteoliposome experiments. Proteoliposome preparation was carried out as previously described (Bruzzone, S., et al., FASEB J., 15, 10-12, 2001). Briefly, 2×10^7 control or Slc12a8-OE NIH3T3 cells were resuspended in 1 ml of lysis buffer (10 mM Tris-HCl, pH 8.3, 150 mM NaCl, 0.3 M sucrose, protease inhibitor cocktail) and disrupted using a homogenizer. The lysate was centrifuged for 10 min at 3,000×g, and the supernatant was collected and centrifuged for 15 min at 100,000×g. The membrane proteins were solubilized with buffer A (10 mM Tris-HCl, pH 8.3, containing 150 mM NaCl and 0.5% n-octyl β-glucopyranoside). Separately, total lipids were extracted from hemoglobin-free erythrocyte membranes (ghosts) as described previously (Franco, L., et al., FASEB J., 12, 1507-1520, 1998). Total lipids from human erythrocyte membranes (3 mg) were dried and resuspended with 600 μl of solubilized membrane proteins (at approximately 0.7 mg/ml protein concentration). The resulting emulsions were sonicated in ice for 1 min and dialyzed against 5 liters of buffer A without n-octyl-β-glucopyranoside (dialysis buffer) for 24 h at 4° C. Proteoliposomes were recovered, centrifuged for 15 min at 100,000×g, resuspended in 900 μl dialysis buffer and passed 5 times through a 30-gauge needle.\nTo examine the Na+-dependency of Slc12a8, NaCl was replaced with 150 mM LiCl. All steps were carried out at 4° C. Proteoliposomes (30 μl in triplicate for each condition) were incubated for 2, 5 or 10 min at 25° C. in the presence of […] 3H-β-NMN (specific activity, 9.1 Ci/mmole) with or without label-free nucleotides (NMN, NR, NAD, AMP; NAM or NaMN). At the end of incubations, samples were filtered on a glass fiber paper. Filters were washed with 3 ml of dialysis buffer, dried, and counted for radioactivity.\nProteoliposomes were produced by combining the membrane fractions of Slc12a8-OE or control NIH3T3 cells with the phospholipid bilayers derived from deproteinized erythrocyte plasma membrane as described supra using 22 nM, ^3H-NMN at 25° C. in proteoliposomes produced from plasma membrane fractions of Slc12a8-OE and control NIH3T3 cells in transport buffer (n=3; analyzed by one-way ANOVA with Sidak's multiple comparisons test).\nIn order to determine substrate specificity of Slc12a8, these Slc12a8-OE proteoliposomes were used for displacement experiments with ^3H-NMN and various cold NAD+-related compounds. Uptake of ^3H-NMN (150 nM, 25° C.) was measured at 2 min in Slc12a8-OE proteoliposomes in the presence of 150 μM competing cold compounds (NMN, NR, NAD, AMP, NaMN, and nicotinamide) in transport buffer (n=3, analyzed by ANOVA with Dunnett's test). […] Data are shown as percentages of ^3H-NMN uptake (n=3; IC50 was calculated by non-linear regression analysis).\nIn these experiments, the sodium ion dependency of Slc12a8 for NMN transport was evaluated using the proteoliposome system."}
{"smiles": "NC(=O)c1ccc[n+]([C@@H]2O[C@H](COP(=O)([O-])O)[C@@H](O)[C@H]2O)c1", "note": "[NMN, nicotinamide mononucleotide]", "values": [{"measurement": "displacement of 3H-NMN", "setting": "150 μM cold compound, 150 nM 3H-NMN, 25° C., 2 min", "value": "complete displacement"}, {"measurement": "IC50", "setting": "Slc12a8-OE proteoliposome system", "value": "22.8 ± 3.6", "unit": "µM"}]}
